# According to PMC10492782, “Exploiting the aggregation propensity of beta-lactamases to design inhibitors that induce enzyme misfolding” (Nature Communications, 2023):
# Columns and labels:
# [1] = tested on: E. coli K12 MG1655 overexpressing GFP; test: Structured illumination microscopy of strains expressing GFP or FP fusions; type: cell-based, Escherichia coli; conditions: strains stably expressing GFP or proteins fused to FPs treated with TEM3.2
# Description: (§1) Fig. 5 Induction of aggregation in cells. […] A single representative image is shown. […] A single representative image is shown. C SIM and brightfield images as in A, but for E. coli ATCC strain. […] A single representative image is shown. […] A single representative blot is shown. […] The corrected P-values were 0.6091, 0.0029, 0.0027, <0.0001, and 0.9992, from left to right. […] Statistics exactly as in E, but from 3 independent experiments. The corrected P-values were 0.8753, 0.9796, 0.0001, 0.0003, and 0.0003, from left to right. Source data are provided as a Source Data file.
# Bacteria were fixed by adding 2.5% paraformaldehyde and 0.04 % glutaraldehyde (final concentrations) to the culture media, followed by incubation at room temperature for 15 min and 30 min on ice. Bacteria were then washed in PBS and resuspended in GTE buffer (50 mM glucose, 25 mM Tris, and 10 mM EDTA, pH 8.0). Directly preceding microscopic analysis, cells were transferred to a glass slide and covered with a coverslip. Imaging was performed using a Zeiss Elyra S.1 system in the VIB BioImaging Core at KU Leuven.
# [2] = target: T1, TEM beta-lactamase in E. coli strain UZ_TEM104 (Escherichia coli, UniProt P62593); test: Western blot of inclusion body fraction; type: cell-based; conditions: 12 μM peptide in PBS, 120 min
# T1 construct: endogenous in cells
# Description: as §1
# Overnight cultures of bacteria were centrifuged for 30 min at 4000 × g and cells were washed with physiological water (NaCl 0.9%). Bacterial cells were treated by peptide at the appropriate concentration for at least 2 h at 37 C. The bacterial pellets were washed with 10 mL buffer A (50 mM HEPES, pH 7.5, 300 mM NaCl, 5 mM β-mercaptoethanol, 1.0 mM EDTA) and centrifuged at 4 °C for 30 min at 4000 × g. […]
# [3] = tested on: clinical isolates of E. coli containing TEM or SHV enzymes; test: MIC of ampicillin with or without 30 µg/mL TEM3.2 in clinical isolates; type: cell-based, Escherichia coli; conditions: 30 μg/mL TEM3.2; 14 out of 16 isolates
# Experimental: Determination of MIC values was performed using the broth microdilution method according to the EUCAST guideline, which was performed in 96-well polystyrene flat-bottom microtiter plates (BD Biosciences). Briefly, a single colony was inoculated into 5 mL Difco™ Mueller–Hinton Broth (BD Biosciences Ref 275730) and grown to the end-exponential growth phase in a shaking incubator at 37 °C. Cultures were subsequently diluted to a MacFarland (0.5 optical density) to reach 10^6 CFU/mL in fresh MHB medium. 50 µl of different concentrations of peptides ranging from 128 to 2 µg/mL were serially diluted to the sterile 96-well plate in MHB. 50 µL of the diluted bacteria in MHB were next pipetted into 96-well plates to reach the final volume of 100 µL. The bacteria grown with the maximum concentration of carrier and medium were considered positive and negative controls, respectively. The plates were statically incubated overnight at 37 °C to allow bacterial growth. OD was measured at 590 nm using a multipurpose ultraviolet–visible plate reader, and the absorbance of the bacterial growth was measured using an absorbance reader.
# E. coli UZ_TEM104 = test: FACS with pFTAA (aggregation) and propidium iodide (cell death); type: cell-based, Escherichia coli
# Experimental: Fig. 6 Uptake and inclusion body formation upon peptide treatment. Fluorescence-activated cell-sorting (FACS) (A) of E. coli strain UZ_TEM104 mixed 50–50% with the same strain after heat-inactivation. The cells were stained with pFTAA to monitor aggregation and propidium iodide (PI) to monitor cell permeabilization associated with cell death. 10^6 cells were analyzed for the plot. […] B Similar FACS analysis as in A, but with a sample of live bacteria only. […] Note: the horizontal and vertical lines correspond to the gatings used to obtain the quantifications shown in the corners of each image.
# Treated bacteria were washed with PBS buffer two times. One microliter of PI (Invitrogen) was added to the bacteria and incubated for 5 min. The bacteria were counted by FACS to reach 40000 events. To correlate the activity of the peptides with cell death, the fluorescence intensity was measured in two channels using the Gallios^TM Flow Cytometer (Beckman Coulter, USA), PI: excitation 536 nm and emission 617 nm, FITC: excitation 490 nm and emission 525 nm. Heated bacteria at 90 °C for 10 min were used as PI-positive control.
# The bacterial cultures were washed with PBS, and the number of bacteria was adjusted to 10^8–10^9 cells/mL. […] Then, cells were treated with LCO dyes (pFTAA; Amytacker^TM680 or Amytacker^TM545: final concentration of 0.5 µM; Ebba Biotech, Sweden) for at least 90 min. The absorption, emission, and excitation spectra for each dye were measured based on the standard Ebbabiotec advice (ebbabiotech.com).
# HeLa cells = test: CellTiter Blue cell viability; conditions: 24 h, 37 °C, DMEM without serum
# Experimental: Fig. 7 Evaluation of in vivo use of peptides that induce the aggregation of TEM beta-lactamase. A Lysis of human erythrocytes (hemolysis) was assessed in the presence of the indicated concentrations of TEM3.2 for 2 h at 37 °C, and normalized to the value obtained with 1% of the detergent triton. […] B Cell viability using the CellTiter Blue assay of HeLa cells treated for 24 h with the indicated concentrations TEM 3.2 at 37 °C. […] DAPI (4’,6-diamidino-2-phenylindole) is blue, while CellMask is red. D Experimental workflow of the in vivo model used in this study. E–G Bacterial load of indicated organs of female C57BL/6JAX mice with a urinary tract infection with E. coli strain UZ_TEM104, treated with 30 mg/kg penicillin (oral) as well 10 mg/kg tazobactam (oral) or 10 mg/kg TEM3.2 via the indicated treatment route. IV intravenous, IP intraperitoneal, SC subcutaneously. The data shown is from a single experiment with 12 animals for each group. The result for each animal is shown as a dot. […] The statistically significant differences were determined using ANOVA, followed by Dunnett’s multiple comparison test. […]
# The Cell Titer Blue assay was performed to evaluate the cell viability according to the instructions of the manufacturer (Promega, USA). […] The fluorescence was measured at 590 nm by exciting at 560 nm with a ClarioStar plate reader (BMG Labtech, Germany).
# T1 sequence (P62593 24-286 limits assumed): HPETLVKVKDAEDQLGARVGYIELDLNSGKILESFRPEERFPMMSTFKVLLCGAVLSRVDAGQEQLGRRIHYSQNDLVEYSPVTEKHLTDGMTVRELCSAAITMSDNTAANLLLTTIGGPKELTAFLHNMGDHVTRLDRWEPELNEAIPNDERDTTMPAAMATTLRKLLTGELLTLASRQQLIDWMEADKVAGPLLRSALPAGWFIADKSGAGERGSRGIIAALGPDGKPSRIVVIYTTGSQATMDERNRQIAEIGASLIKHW
substance,measurement,setting,value
Ac-RLTAFLHNRRPRLTAFLRQRR-NH2 [TEM3.2],induced aggregation of unrelated fluorescent proteins (in words),[1],did not observe a similar induced aggregation of the fluorescent proteins
same,"TEM protein in inclusion body fraction, western blot (in words)",[2],clear enrichment of the TEM protein in IBs
same,clinical isolates containing TEM or SHV sensitized to Ampicillin,[3],87%
same,cells with non-lethal aggregation (pFTAA shift),"E. coli UZ_TEM104; 50 μg/mL TEM3.2, 4 h in PBS",> 99%
same,shift in pFTAA and PI channels (in words),"E. coli UZ_TEM104; 4 h, penicillin G 400 μg/mL and/or TEM3.2 50 μg/mL",a shift of the bacterial population only in the pFTAA channel
same,"cytotoxicity, Cell Titer Blue (in words)",HeLa cells,not cytotoxic
